Measurements as given in patent publication US20170209447A1, “Use of PNP Inhibitor to Treat Relapse of Malignancy after Hematopoietic Stem Cell Transplant” (Nitor Therapeutics, priority 2014, published 2017).
Like-named read-outs stand apart in the source and are kept apart here.

Key:
B16 tumors [1] = assay: PNPi as anticancer agent in mouse melanoma model; format: in vivo, C57BL/6 mice
Method: Evaluation of PNPi as Anticancer Agent in Mouse Melanoma Model.
Treatment with the NTR001 was initiated on day 6 after injection of tumor cells. Tumor volume and survival were recorded every 3-4 days.

B16 tumors [2] = conditions: NTR001 60 mg/kg PO; CTLA4-Ab 100, 50, 50 ug IP; days 0, 3 and 6; FIG. 11

O=c1[nH]cnc2c([C@@H]3N[C@H](CO)[C@@H](O)[C@H]3O)c[nH]c12 [NTR001, 7-[(2S,3S,4R,5R)-3,4-dihydroxy-5-(hydroxymethyl)-2-pyrrolidinyl]-1,5-dihyro-4-H-pyrrolo-[3,2-d]pyrimidin-4-one]
survival (B16 tumors [1]; NTR001 as single agent (30 mg/kg PO week on/off; 5 mg/kg drinking water 28 days), FIG. 6): 0-20% | tumor volume (B16 tumors [1]; NTR001 treatment initiated day 6 after tumor cells, 30 mg/kg PO week on/off or 5 mg/kg drinking water, FIG. 5): significant decrease | tumor volume (B16 tumors [2]): decrease in tumor volume but was not statistically significant
